In patent US20230373939A1 (VERTEX PHARMACEUTICALS INCORPORATED, priority 2020, published 2023):
Read-outs that look alike come from different tables or passages of the source.

Molecular target: T1, F508del in NIH 3T3 cells (Homo sapiens, UniProt P13569, DEL508-508)
T1 construct: expressed in transfected cells
Assay: 3T3 assay: membrane potential optical assay for F508del correction
Format: cell-based
Conditions: for EC50: read-out: 3T3 EC50
From the text: 1. Membrane Potential Optical Methods for Assaying F508del Modulation Properties of Compounds
The assay utilizes fluorescent voltage sensing dyes to measure changes in membrane potential using a fluorescent plate reader (e.g., FLTPR III, Molecular Devices, Inc.) as a readout for increase in functional F508del in NIH 3T3 cells. The driving force for the response is the creation of a chloride ion gradient in conjunction with channel activation by a single liquid addition step after the cells have previously been treated with compounds and subsequently loaded with a voltage sensing dye.
2. Identification of Corrector Compounds
To identify correctors of F508del, a single-addition HTS assay format was developed. This HTS assay utilizes fluorescent voltage sensing dyes to measure changes in membrane potential on the FLIPR III as a measurement for increase in gating (conductance) of F508del in F508del NUT 3T3 cells. The F508del NUT 3T3 cell cultures were incubated with the corrector compounds at a range of concentrations for 18-24 hours at 37° C., and subsequently loaded with a redistribution dye. The driving force for the response is a Cl^− ion gradient in conjunction with channel activation with forskolin in a single liquid addition step using a fluorescent plate reader such as FLIPR III.
Bath Solution #1: (in mM) NaCl 160, KCl 4.5, CaCl2 2, MgCl2 1, HEPES 10, pH 7.4 with NaOH.
Chloride-free bath solution: Chloride salts in Bath Solution #1 (above) are substituted with gluconate salts.
NIH3T3 mouse fibroblasts stably expressing F508del were used for optical measurements of membrane potential. The cells were maintained at 37° C. in 5% CO2 and 90% humidity in Dulbecco's modified Eagle's medium supplemented with 2 mM glutamine, 10% fetal bovine serum, 1×NEAA, b-ME, 1×pen/strep, and 25 mM HEPES in 175 cm^2 culture flasks. For all optical assays, the cells were seeded at ˜20,000/well in 384-well Matrigel-coated plates. For the correction assays, the cells were cultured at 37° C. with and without compounds for 16-24 hours.

[1] = NIH3T3, NIH 3T3 cells, F508del, read-out: 3T3 Max Activity (%)
[2] = NIH3T3, read-out: 3T3 Max Activity (%)

T1 sequence (P13569 with tags, fused parts or gaps DEL508-508): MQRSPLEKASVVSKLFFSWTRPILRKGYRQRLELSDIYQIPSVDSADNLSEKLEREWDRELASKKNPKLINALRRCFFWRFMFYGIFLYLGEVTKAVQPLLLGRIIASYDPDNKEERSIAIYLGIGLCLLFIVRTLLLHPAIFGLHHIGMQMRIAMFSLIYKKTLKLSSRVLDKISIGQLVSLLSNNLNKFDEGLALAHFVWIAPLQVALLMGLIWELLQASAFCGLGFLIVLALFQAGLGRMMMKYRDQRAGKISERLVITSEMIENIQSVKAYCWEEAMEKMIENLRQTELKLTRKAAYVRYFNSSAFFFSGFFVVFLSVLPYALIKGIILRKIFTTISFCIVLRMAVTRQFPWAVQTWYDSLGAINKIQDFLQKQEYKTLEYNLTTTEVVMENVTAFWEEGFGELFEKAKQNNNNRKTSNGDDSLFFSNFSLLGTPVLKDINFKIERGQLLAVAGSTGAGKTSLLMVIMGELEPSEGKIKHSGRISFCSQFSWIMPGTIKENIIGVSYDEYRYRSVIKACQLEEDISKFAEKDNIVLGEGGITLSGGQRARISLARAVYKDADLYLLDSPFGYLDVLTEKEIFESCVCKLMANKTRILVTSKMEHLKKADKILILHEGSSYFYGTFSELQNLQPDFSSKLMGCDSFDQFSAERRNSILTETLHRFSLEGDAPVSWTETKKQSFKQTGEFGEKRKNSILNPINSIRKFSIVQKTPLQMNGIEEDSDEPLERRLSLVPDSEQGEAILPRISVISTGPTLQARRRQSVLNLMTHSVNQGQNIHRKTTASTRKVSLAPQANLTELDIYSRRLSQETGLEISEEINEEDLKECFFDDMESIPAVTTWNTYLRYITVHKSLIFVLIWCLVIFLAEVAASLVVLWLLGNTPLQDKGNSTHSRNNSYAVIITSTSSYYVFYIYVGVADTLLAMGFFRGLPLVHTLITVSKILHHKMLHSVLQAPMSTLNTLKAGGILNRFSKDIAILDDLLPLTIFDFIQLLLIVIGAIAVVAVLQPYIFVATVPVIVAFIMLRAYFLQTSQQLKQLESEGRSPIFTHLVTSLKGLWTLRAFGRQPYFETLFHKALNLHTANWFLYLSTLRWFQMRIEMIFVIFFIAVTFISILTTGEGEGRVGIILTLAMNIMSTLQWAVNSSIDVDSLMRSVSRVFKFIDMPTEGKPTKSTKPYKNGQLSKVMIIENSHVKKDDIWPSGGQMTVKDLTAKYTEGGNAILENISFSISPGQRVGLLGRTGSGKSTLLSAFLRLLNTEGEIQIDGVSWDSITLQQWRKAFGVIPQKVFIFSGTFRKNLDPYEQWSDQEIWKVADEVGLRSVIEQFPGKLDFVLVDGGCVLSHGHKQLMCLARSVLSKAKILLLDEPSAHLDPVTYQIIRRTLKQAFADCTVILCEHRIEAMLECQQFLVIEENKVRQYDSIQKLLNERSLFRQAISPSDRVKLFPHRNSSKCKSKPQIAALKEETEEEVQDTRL

Row | Emax [1] | EC50 (NIH 3T3 cells, F508del) | SMILES | Emax [2]
1 | > 60% | 1 to 3 µM | Cc1cc(NS(=O)(=O)c2ccccc2)nc(-c2cc(C)ccc2C)c1 [Compound 135, N-[6-(2,5-Dimethylphenyl)-4-methyl-2-pyridyl]benzenesulfonamide] | 
2 | < 30% |  | O=S(=O)(Nc1nn(Cc2ccccc2)cc1C1=CCCCC1)c1ccccc1 [Compound 106, N-[1-benzyl-4-(cyclohexen-1-yl)pyrazol-3-yl]benzenesulfonamide] | 
3 | 30 to 60% | 1 to 3 µM | COc1ccccc1-c1cn(-c2cccc(Cl)c2)nc1NS(=O)(=O)c1ccccc1 [Compound 92, N-[1-(3-chlorophenyl)-4-(2-methoxyphenyl)pyrazol-3-yl]benzenesulfonamide] | 
4 | 30 to 60% |  | Nc1cccc(S(=O)(=O)Nc2nn(-c3ccccc3)cc2Cc2ccccc2)c1 [Compound 73, 3-amino-N-(4-benzyl-1-phenyl-pyrazol-3-yl)benzenesulfonamide] | 
5 | < 30% |  | O=S(=O)(Nc1nn(Cc2ccccc2)cc1-c1ccccc1Cl)c1ccccc1 [Compound 110, N-[1-benzyl-4-(2-chlorophenyl)pyrazol-3-yl]benzenesulfonamide] | 
6 | > 60% | 1 to 3 µM | Cc1cc(C)c(-n2nc(NS(=O)(=O)c3ccccc3)cc2Br)c(C)c1 [Compound 67, N-[5-bromo-1-(2,4,6-trimethylphenyl)pyrazol-3-yl]benzenesulfonamide] | 
7 | > 60% | 1 to 3 µM | Cc1ccc(C)c(-c2nc(NS(=O)(=O)c3ccccc3)cc(C)c2C)c1 [Compound 139, N-[6-(2,5-Dimethylphenyl)-4,5-dimethyl-2-pyridyl]benzenesulfonamide] | 
8 | > 60% | 1 to 3 µM | Cc1ccc(-c2nc(NS(=O)(=O)c3ccccc3)cc(C)c2C)cc1C [Compound 157] | 
9 | > 60% | < 1 µM | Cc1cc(C)c(-n2nc(NS(=O)(=O)c3ccccc3)cc2-c2ccccc2Oc2ccccc2)c(C)c1 [Compound 55, N-[5-(2-phenoxyphenyl)-1-(2,4,6-trimethylphenyl)pyrazol-3-yl]benzenesulfonamide] | 
10 | > 60% | 3 to 30 µM | CC(C)c1sc(NS(=O)(=O)c2ccccc2)nc1-c1ccccc1 [Compound 17, N-(5-isopropyl-4-phenyl-thiazol-2-yl)benzenesulfonamide] | 
11 | < 30% |  | O=S(=O)(Nc1nc(C2CC2)cs1)c1ccccc1 [Compound 12, N-(4-cyclopropylthiazol-2-yl)benzenesulfonamide] | 
12 | > 60% | < 1 µM | Cc1cc(C)c(-n2nc(NS(=O)(=O)c3ccccc3)cc2-c2ccccc2Cl)c(C)c1 [Compound 58, N-[5-(2-chlorophenyl)-1-(2,4,6-trimethylphenyl)pyrazol-3-yl]benzenesulfonamide] | 
13 | 30 to 60% | 1 to 3 µM | O=S(=O)(Nc1nc(-c2ccc(Cl)cc2)c(S(=O)(=O)c2ccccc2)s1)c1ccccc1 [Compound 16, N-[5-(benzenesulfonyl)-4-(4-chlorophenyl)thiazol-2-yl]benzenesulfonamide] | 
14 | < 30% |  | CCCc1nc(NS(=O)(=O)c2ccccc2)sc1C [Compound 47, N-(5-methyl-4-propyl-thiazol-2-yl)benzenesulfonamide] | 
15 | < 30% |  | O=S(=O)(Nc1n[nH]cc1-c1ccccc1)c1ccccc1 [Compound 77, N-(4-phenyl-1H-pyrazol-3-yl)benzenesulfonamide] | 
16 | 30 to 60% | < 1 µM | Cc1cc(C)c(-n2nc(NS(=O)(=O)c3ccccc3)cc2-c2ccc(Cl)cc2)c(C)c1 [Compound 56, N-[5-(4-chlorophenyl)-1-(2,4,6-trimethylphenyl)pyrazol-3-yl]benzenesulfonamide] | 
17 | < 30% | < 1 µM | COc1ccc(-c2cn(-c3cccc(Cl)c3)nc2NS(=O)(=O)c2ccccc2)cc1 [Compound 90, N-[1-(3-chlorophenyl)-4-(4-methoxyphenyl)pyrazol-3-yl]benzenesulfonamide] | 
18 | < 30% |  | O=S(=O)(Nc1nn(-c2ccccc2)cc1-c1cccs1)c1ccccc1 [Compound 75, N-[1-phenyl-4-(2-thienyl)pyrazol-3-yl]benzenesulfonamide] | 
19 | 30 to 60% | 3 to 30 µM | CC(C)(C)CCNC(=O)c1sc(NS(=O)(=O)c2ccccc2)nc1-c1ccccc1 [Compound 15, 2-(benzenesulfonamido)-N-(3,3-dimethylbutyl)-4-phenyl-thiazole-5-carboxamide] | 
20 | > 60% | 3 to 30 µM | Cc1cc(NS(=O)(=O)c2ccccc2)nc(-c2ccc(C)c(C)c2)c1 [Compound 153] | 
21 | > 60% | 1 to 3 µM | O=S(=O)(Nc1cc(Oc2ccccc2)cc(Oc2ccccc2)n1)c1ccccc1 [Compound 133, N-(4,6-Diphenoxy-2-pyridyl)benzenesulfonamide] | 
22 | < 30% |  | Cc1nc(NS(=O)(=O)c2ccccc2)sc1C [Compound 46, N-(4,5-dimethylthiazol-2-yl)benzenesulfonamide] | 
23 | > 60% | < 1 µM | Cc1cc(C)c(-n2nc(NS(=O)(=O)c3ccccc3)cc2-c2ccccc2C)c(C)c1 [Compound 62] | 
24 | > 60% | 1 to 3 µM | CC(C)=Cc1cc(NS(=O)(=O)c2ccccc2)nn1-c1c(C)cc(C)cc1C [Compound 51, N-[5-(2-methylprop-1-enyl)-1-(2,4,6-trimethylphenyl)pyrazol-3-yl]benzenesulfonamide] | 
25 | 30 to 60% | 1 to 3 µM | O=S(=O)(Nc1nn(-c2cccc(Cl)c2)cc1C1=CCCCC1)c1ccccc1 [Compound 87, N-[1-(3-chlorophenyl)-4-(cyclohexen-1-yl)pyrazol-3-yl]benzenesulfonamide] | 
26 | < 30% |  | O=S(=O)(Nc1nn(-c2ccccc2)cc1Cc1ccccc1)c1ccccc1 [Compound 74, N-(4-benzyl-1-phenyl-pyrazol-3-yl)benzenesulfonamide] | 
27 | 30 to 60% | 1 to 3 µM | Cc1cccc(-c2cn(-c3cccc(Cl)c3)nc2NS(=O)(=O)c2ccccc2)c1 [Compound 94, N-[1-(3-chlorophenyl)-4-(m-tolyl)pyrazol-3-yl]benzenesulfonamide] | 
28 | 30 to 60% | < 1 µM | CC1CN(c2cc(NS(=O)(=O)c3ccccc3)nc(Oc3ccccc3)n2)C(C)(C)C1 (stereo not shown) [Compound 128, N-[2-phenoxy-6-(2,2,4-trimethylpyrrolidin-1-yl)pyrimidin-4-yl]benzenesulfonamide] | 
29 | 30 to 60% | 3 to 30 µM | CC(C)=Cc1cn(-c2cccc(Cl)c2)nc1NS(=O)(=O)c1ccccc1 [Compound 85, N-[1-(3-chlorophenyl)-4-(2-methylprop-1-enyl)pyrazol-3-yl]benzenesulfonamide] | 

Row | SMILES | Emax [1] | EC50 (NIH 3T3 cells, F508del) | Emax [2]
30 | COc1ccccc1C1(c2cnc(NS(=O)(=O)c3ccccc3)s2)CC1 [Compound 25, N-[5-[1-(2-methoxyphenyl)cyclopropyl]thiazol-2-yl]benzenesulfonamide] |  | 3 to 30 µM | > 60%
31 | CCCc1sc(NS(=O)(=O)c2ccccc2)nc1-c1ccc(C)cc1 [Compound 5, N-[5-propyl-4-(p-tolyl)thiazol-2-yl]benzenesulfonamide] |  | < 1 µM | > 60%
32 | O=S(=O)(Nc1nc(-c2ccccc2)c(-c2ccccc2)s1)c1ccccc1 [Compound 7, N-(4,5-diphenylthiazol-2-yl)benzenesulfonamide] |  | 1 to 3 µM | > 60%
